Assay [1] deals with E. coli E1. Description: MIC against veterinary bacteria in vitro. Conditions: Escherichia coli, E1, 18 h.
Description: (§1) The activity of the compounds of the Examples against various veterinarily important bacteria, was assayed in vitro using two-fold serial dilutions in Diagnostic Sensitivity Test Agar inoculated with 10^4 organisms.
The test system of assay [2] is Staph. aureus B4 (pen. resistant). Description: MIC against veterinary bacteria in vitro. Conditions: Staphylococcus aureus, 18 h.
Description: as §1
Assay [3] has as its system Staph. aureus Oxford. Nature of the assay: MIC against human bacteria in vitro. It is filed as cell-based. Conditions: Staphylococcus aureus; Staph. aureus Oxford; 5% chocolated horse blood agar, 18 hours; read-out: MIC.
Assay [4] concerns M. bovis NCTC 10131. Description: microbe, parasite or virus in culture. It is filed as cell-based. Conditions: NCTC10131, 144 h.
For assay [5], the system named is M. gallisepticum S6. Description: MIC against mycoplasma in vitro. It is filed as cell-based. Conditions: Mycoplasmoides gallisepticum.
Assay [6] concerns Haemophilus influenzae Q1. Nature of the assay: MIC against human bacteria in vitro. It is filed as cell-based. Conditions: Haemophilus influenzae Q1; 5% chocolated horse blood agar, 18 hours; read-out: MIC.
Assay [7] has as its system M. suipneumoniae J2206/183^b. Nature of the assay: MIC against mycoplasma in vitro. It is filed as cell-based. Conditions: Mesomycoplasma hyopneumoniae, 144 h; M. suipneumoniae J2206/183^b; 6 days, 37° C.; read-out: MIC.
For assay [8], the system named is Past. multocida PA1. Description: MIC against veterinary bacteria in vitro. Conditions: Pasteurella multocida, PA1, 18 h.
Description: as §1
In assay [9] the test system is M. dispar NCTC 10125. Description: MIC against mycoplasma in vitro. Conditions: 144 h. It is filed as cell-based.
Assay [10] relates to M. suipneumoniae JF 435. Description: MIC against mycoplasma in vitro. Format: cell-based. Conditions: Mesomycoplasma hyopneumoniae, JF435, 144 h; M. suipneumoniae JF 435; 6 days, 37° C.; read-out: MIC.
Assay [11] concerns M. suipneumoniae UCD 1. Nature of the assay: MIC against mycoplasma in vitro. It is filed as cell-based. Conditions: Mesomycoplasma hyopneumoniae, UCD1, 144 h; M. suipneumoniae UCD 1; 6 days, 37° C.; read-out: MIC.
In assay [12] the test system is M. suipneumoniae PW/C/210. Nature of the assay: MIC against mycoplasma in vitro. Format: cell-based. Conditions: Mesomycoplasma hyopneumoniae, 144 h.
The test system of assay [13] is M. pneumoniae ATCC 15492. Nature of the assay: MIC against mycoplasma in vitro. It is filed as cell-based. Conditions: Mycoplasmoides pneumoniae, ATCC15492, 144 h.
Assay [14] relates to M. suipneumoniae NCTC 10110. Nature of the assay: MIC against mycoplasma in vitro. It is filed as cell-based. Conditions: Mesomycoplasma hyopneumoniae, NCTC10110, 144 h; M. suipneumoniae NCTC 10110; 6 days, 37° C.; read-out: MIC.
Assay [15] has as its system E. coli NCTC 10418. Description: MIC against veterinary bacteria in vitro. Conditions: Escherichia coli, NCTC10418, 18 h.
Description: as §1
Assay [16] relates to Pasteurella multocida 1633. Description: MIC against human bacteria in vitro. Format: cell-based. Conditions: Pasteurella multocida 1633; 5% chocolated horse blood agar, 18 hours; read-out: MIC.
The subject of assay [17] is Past. haemolytica PA5. Description: MIC against veterinary bacteria in vitro. Conditions: Mannheimia haemolytica, PA5, 18 h.
Description: as §1
The subject of assay [18] is P. mirabilis 889. Nature of the assay: MIC against human bacteria in vitro. It is filed as cell-based.
In assay [19] the test system is Bord. bronchiseptica B08. Nature of the assay: MIC against veterinary bacteria in vitro. Conditions: Bordetella bronchiseptica, B08, 18 h.
Description: as §1
For assay [20], the system named is Bord. bronchiseptica B09. Description: MIC against veterinary bacteria in vitro. Conditions: Bordetella bronchiseptica, B09, 18 h.
Description: as §1
The subject of assay [21] is Strep. suis (group D) SPS11. Nature of the assay: MIC against veterinary bacteria in vitro. Conditions: Streptococcus suis, 18 h.
Description: as §1
In assay [22] the test system is Strep. agalactiae SPA1. Description: MIC against veterinary bacteria in vitro. Conditions: Streptococcus agalactiae, SPA1, 18 h.
Description: as §1
The subject of assay [23] is M. hyosynoviae ATCC 25591. Nature of the assay: MIC against mycoplasma in vitro. Format: cell-based. Conditions: 144 h; M. hyosynoviae ATCC 25591; 6 days, 37° C.; read-out: MIC.
The mark [24] stands for this setting: Proteus mirabilis, P. mirabilis 889, 5% chocolated horse blood agar, 18 hours, read-out: MIC.
Setting [25] is: 144 h, M. gallisepticum S6, 6 days, 37° C., read-out: MIC.
Setting [26] is: M. dispar NCTC 10125, 6 days, 37° C., read-out: MIC.
Where [27] appears, read: M. suipneumoniae PW/C/210, 6 days, 37° C., read-out: MIC.
Where [28] appears, read: M. pneumoniae ATCC 15492, 6 days, 37° C., read-out: MIC.

In brackets after ≈: the same amount, converted by molar mass. Read-outs that look alike come from different tables or passages of the source.

Regarding `C/C(=C\c1ncc(-c2ccc(C=O)cc2)o1)C[C@@H]1OC[C@H](C[C@@H]2O[C@H]2[C@@H](C)[C@H](C)O)[C@@H](O)[C@H]1O` [Example 15, 5-p-Formylphenyl-2-(1-normon-2-yl) oxazole A], the MIC in [1] was more than 80 µg/mL; in [2], 2.5 µg/mL (≈ 5.3 µM); in [3], 2 µg/mL (≈ 4.24 µM); in [4] it was 0.05 µg/mL (≈ 0.106 µM); in assay [5] (S6, 144 h), 1 µg/mL (≈ 2.12 µM); in assay [6], 4 µg/mL (≈ 8.48 µM). Also, the MIC in assay [7] was found to be 0.5 µg/mL (≈ 1.06 µM); in assay [8] it was 10 µg/mL (≈ 21.2 µM); in assay [9], 0.1 µg/mL (≈ 0.212 µM); in assay [10], 0.5 µg/mL (≈ 1.06 µM); in assay [11], 0.5 µg/mL (≈ 1.06 µM); in assay [12], 0.25 µg/mL (≈ 0.53 µM). Also, the MIC in [13] is 1 µg/mL (≈ 2.12 µM); in assay [14], 0.5 µg/mL (≈ 1.06 µM); in assay [15], more than 80 µg/mL; in assay [16], 32 µg/mL (≈ 67.9 µM); in assay [17], 80 µg/mL (≈ 170 µM); in assay [18] (setting [24]), more than 128 µg/mL. In addition, the MIC was 80 µg/mL (≈ 170 µM) in [19]; 20 µg/mL (≈ 42.4 µM) in assay [20]; 20 µg/mL (≈ 42.4 µM) in [21]; 1.25 µg/mL (≈ 2.65 µM) in assay [22]; 0.5 µg/mL (≈ 1.06 µM) in assay [23].

For `COC(=O)c1ccc(-c2cnc(/C=C(\C)C[C@@H]3OC[C@H](C[C@@H]4O[C@H]4[C@@H](C)[C@H](C)O)[C@@H](O)[C@H]3O)o2)cc1` [Example 16, 5-p-Methoxycarbonylphenyl-2-(1-normon-2-yl) oxazole A], the MIC in [1] is more than 80 µg/mL; in [2], 5 µg/mL (≈ 9.97 µM); in [3], 4 µg/mL (≈ 7.97 µM); in [4] it was 0.05 µg/mL (≈ 0.0997 µM); in assay [5] (setting [25]), 2.5 µg/mL (≈ 4.98 µM); in assay [6], 2 µg/mL (≈ 3.99 µM). Also, the MIC in [7] was 0.5 µg/mL (≈ 0.997 µM); in assay [8], 40 µg/mL (≈ 79.7 µM); in assay [9] (setting [26]), 0.1 µg/mL (≈ 0.199 µM); in [10], 0.5 µg/mL (≈ 0.997 µM); in assay [11] it was 0.5 µg/mL (≈ 0.997 µM); in assay [12] (setting [27]) it was 0.25 µg/mL (≈ 0.498 µM). Further, the MIC is 1 µg/mL (≈ 1.99 µM) in [13] (setting [28]); 0.5 µg/mL (≈ 0.997 µM) in [14]; more than 80 µg/mL in assay [15]; 16 µg/mL (≈ 31.9 µM) in assay [16]; more than 80 µg/mL in assay [17]; more than 64 µg/mL in assay [18] (setting [24]). Also, the MIC in [19] was more than 80 µg/mL; in [20] it was 40 µg/mL (≈ 79.7 µM); in assay [21], 20 µg/mL (≈ 39.9 µM); in [22], 1.25 µg/mL (≈ 2.49 µM); in assay [23], 0.5 µg/mL (≈ 0.997 µM).

As to `C/C(=C\c1ncc(-c2ccccc2)s1)C[C@@H]1OC[C@H](C[C@@H]2O[C@H]2[C@@H](C)[C@H](C)O)[C@@H](O)[C@H]1O` [Example 29, 2-(1-Normon-2-yl)-5-phenylthiazole A], the MIC in assay [1] is more than 80 µg/mL; in [2], 10 µg/mL (≈ 21.8 µM); in assay [3] it was 25 µg/mL (≈ 54.4 µM); in [4] it was 0.5 µg/mL (≈ 1.09 µM); in assay [5] (setting [25]), more than 10 µg/mL; in assay [6], 50 µg/mL (≈ 109 µM). Further, the MIC is more than 10 µg/mL in assay [7]; more than 80 µg/mL in [8]; 2.5 µg/mL (≈ 5.44 µM) in assay [9]; more than 10 µg/mL in [10]; more than 10 µg/mL in [11]; 10 µg/mL (≈ 21.8 µM) in assay [12] (setting [27]). For the same compound, the MIC in assay [13] (setting [28]) is more than 10 µg/mL; in [14], more than 10 µg/mL; in assay [15], more than 80 µg/mL; in assay [16], more than 100 µg/mL; in assay [17], more than 80 µg/mL; in assay [18] (Proteus mirabilis, 889, 18 h), more than 100 µg/mL. The MIC in assay [19] is more than 80 µg/mL; in assay [20] it was more than 80 µg/mL; in assay [21], more than 80 µg/mL; in [22], 40 µg/mL (≈ 87 µM); in assay [23], more than 10 µg/mL.

Take `C/C(=C\c1nc(C)c(-c2ccccc2)o1)C[C@@H]1OC[C@H](C[C@@H]2O[C@H]2[C@@H](C)[C@H](C)O)[C@@H](O)[C@H]1O` [Example 40, 4-Methyl-2-(1-normon-2-yl)-5-phenyloxazole A]: the MIC is more than 80 µg/mL in [1]; 80 µg/mL (≈ 175 µM) in assay [2]; 100 µg/mL (≈ 219 µM) in assay [3]; 5 µg/mL (≈ 10.9 µM) in assay [4]; more than 10 µg/mL in assay [5] (setting [25]); 50 µg/mL (≈ 109 µM) in assay [6]. In addition, the MIC in [7] was more than 10 µg/mL; in assay [8] it was 80 µg/mL (≈ 175 µM); in assay [9] (setting [26]), more than 10 µg/mL; in [10], more than 10 µg/mL; in [11], more than 10 µg/mL; in [12] (setting [27]) it was more than 10 µg/mL. The MIC was more than 10 µg/mL in [13] (setting [28]); more than 10 µg/mL in assay [14]; more than 80 µg/mL in assay [15]; 100 µg/mL (≈ 219 µM) in assay [16]; more than 80 µg/mL in assay [17]; more than 100 µg/mL in [18] (Proteus mirabilis, 889, 18 h). The MIC in assay [19] was more than 80 µg/mL; in assay [20], more than 80 µg/mL; in assay [21] it was more than 80 µg/mL; in assay [22] it was more than 80 µg/mL; in assay [23] it was more than 10 µg/mL.

On to `C/C(=C\c1nc(-c2ccccc2)c(-c2ccccc2)o1)C[C@@H]1OC[C@H](C[C@@H]2O[C@H]2[C@@H](C)[C@H](C)O)[C@@H](O)[C@H]1O` [Example 41, 4,5-Diphenyl-2-(1-normon-2-yl)oxazole A], for which the MIC in assay [1] is more than 80 µg/mL; in assay [2], 40 µg/mL (≈ 77 µM); in assay [3], 100 µg/mL (≈ 192 µM); in assay [4], 2.5 µg/mL (≈ 4.81 µM); in assay [5] (setting [25]) it was more than 10 µg/mL; in assay [6] it was 10 µg/mL (≈ 19.2 µM). The MIC in assay [7] is more than 10 µg/mL; in [8], 40 µg/mL (≈ 77 µM); in assay [9] (setting [26]) it was more than 10 µg/mL; in assay [10] it was more than 10 µg/mL; in [11], more than 10 µg/mL; in assay [12] (setting [27]), more than 10 µg/mL. In addition, the MIC in assay [13] (setting [28]) is more than 10 µg/mL; in assay [14], more than 10 µg/mL; in assay [15], more than 80 µg/mL; in [16], 25 µg/mL (≈ 48.1 µM); in [17], more than 80 µg/mL; in [18] (Proteus mirabilis, 889, 18 h), more than 100 µg/mL. In addition, the MIC is more than 80 µg/mL in assay [19]; more than 80 µg/mL in assay [20]; more than 80 µg/mL in assay [21]; 40 µg/mL (≈ 77 µM) in assay [22]; more than 10 µg/mL in assay [23].

Values taken from US5041567A, “Antibacterial monic acid derivatives” (Beecham Group plc, priority 1982, dated 1991).
